Test results: ChEMBL document CHEMBL1201862, “PubChem BioAssay data set” (2004)
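Grown in 96-well plates, cells were treated for 48 hours with each compound at five concentrations. Insufficient inhibition: endpoint recorded as highest concentration tested. GI50 marks 50% less growth.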 The source made the active and inactive calls. No stated cut-off is given here; in the data, active = GI50 up to about 1.1 µM and inactive = higher. Square brackets hold non-standard residues; d marks the D form. Peptide text beside a SMILES is read from it. * marks the point of attachment. ξ: configuration not given here. NMeN = CN[C@@H](CC(N)=O)C(=O)O; NMeV = CN[C@H](C(=O)O)C(C)C; ξNMeV = CNC(C(=O)O)C(C)C; Boc = CC(C)(C)OC(=O)*; ξNMeA = CNC(C)C(=O)O

Legend:
Assay in all cases: NCI anticancer screen, dose series, 48 h
A549 = system: A549
MDA-N = system: MDA-N
BT-549 = system: BT-549
NCI-H522 = system: NCI-H522
SF-268 = system: SF-268
HT-29 = system: HT-29
Malme-3M = system: Malme-3M
T47D = system: T47D
HOP-62 = system: HOP-62
OVCAR-5 = system: OVCAR-5
HCT-15 = system: HCT-15
LOX IMVI = system: LOX IMVI
HCC 2998 = system: HCC 2998
SK-MEL-28 = system: SK-MEL-28
CAKI-1 = system: CAKI-1
KM12 = system: KM12
MCF7 = system: MCF7
PC-3 = system: PC-3
CCRF-CEM = system: CCRF-CEM
786-0 = system: 786-0

Structure (SMILES) | GI50 (A549) | GI50 (MDA-N) | GI50 (BT-549) | GI50 (NCI-H522) | GI50 (SF-268) | GI50 (HT-29) | GI50 (Malme-3M) | GI50 (T47D) | GI50 (HOP-62) | GI50 (OVCAR-5) | GI50 (HCT-15) [µM] | GI50 (LOX IMVI) | GI50 (HCC 2998) | GI50 (SK-MEL-28) | GI50 (CAKI-1) | GI50 (KM12) | GI50 (MCF7) | GI50 (PC-3) | GI50 (CCRF-CEM) | GI50 (786-0)
CC1(COS(=O)(=O)OCC2(C)COS(=O)(=O)OC2)COS(=O)(=O)OC1 | > 28.8 µM (inactive) | > 72.4 µM (inactive) | > 48.8 µM (inactive) | > 61.1 µM (inactive) | > 100 µM (inactive) | > 32.6 µM (inactive) | > 83 µM (inactive) | > 20.9 µM (inactive) | 62.2 µM (inactive) | > 100 µM (inactive) | > 35.7 | > 40.5 µM (inactive) | > 60.7 µM (inactive) | > 100 µM (inactive) | > 100 µM (inactive) | > 32.7 µM (inactive) | > 22.3 µM (inactive) | > 29.6 µM (inactive) | > 28.2 µM (inactive) | > 50.8 µM (inactive)
O=c1[nH]nc(Cc2ccccc2)[nH]1 | > 100 µM (inactive) | > 100 µM (inactive) | > 100 µM (inactive) | > 100 µM (inactive) | > 100 µM (inactive) | > 100 µM (inactive) | > 100 µM (inactive) | > 100 µM (inactive) | > 100 µM (inactive) | > 100 µM (inactive) | > 100 | > 100 µM (inactive) | > 100 µM (inactive) | > 100 µM (inactive) | > 100 µM (inactive) | > 100 µM (inactive) | > 100 µM (inactive) | > 100 µM (inactive) | > 100 µM (inactive) | > 100 µM (inactive)
COc1ccc(N2C=Nn3c(nc4sc(C)c(C)c4c3=O)C2)cc1 | > 100 µM (inactive) | > 100 µM (inactive) | > 100 µM (inactive) | > 100 µM (inactive) | > 100 µM (inactive) | > 100 µM (inactive) | > 100 µM (inactive) | > 100 µM (inactive) | 28.6 µM (inactive) | > 100 µM (inactive) | > 100 | > 100 µM (inactive) | > 100 µM (inactive) | > 100 µM (inactive) | > 100 µM (inactive) | > 100 µM (inactive) | > 100 µM (inactive) | > 100 µM (inactive) | > 100 µM (inactive) | 38.3 µM (inactive)
C=C(CCCCCCCCC)CC(=O)SCCNC(=O)CCNC(=O)C(O)C(C)(C)COP(=O)(O)OP(=O)(O)OCC1OC(n2cnc3c(N)ncnc32)C(O)C1OP(=O)(O)O (stereo not given) | > 92.5 µM (inactive) | 32.1 µM (inactive) | > 60.8 µM (inactive) | 11.8 µM (inactive) | 8.73 µM (inactive) | 68.2 µM (inactive) | > 100 µM (inactive) | > 76.9 µM (inactive) | 40.9 µM (inactive) | > 100 µM (inactive) | 50.1 | 38.3 µM (inactive) | 52.8 µM (inactive) | 10.4 µM (inactive) | > 100 µM (inactive) | 52.6 µM (inactive) | > 87.5 µM (inactive) | 56.4 µM (inactive) | > 70.6 µM (inactive) | 69.5 µM (inactive)
COC(=O)C(C)N(C)C(=O)[C@H](CC(N)=O)N(C)C(=O)[C@@H]1CCCN1C(=O)[C@H](C(C)C)N(C)C(=O)C(C(C)C)N(C)C(=O)[C@@H](NC(=O)OC(C)(C)C)C(C)C (stereo not given in full) (Boc-V[ξNMeV][NMeV]P[NMeN][ξNMeA]-OMe) | 37.5 µM (inactive) | > 50 µM (inactive) | > 50 µM (inactive) | > 50 µM (inactive) | > 100 µM (inactive) | > 50 µM (inactive) | > 100 µM (inactive) | > 50 µM (inactive) | > 50 µM (inactive) | > 50 µM (inactive) | > 100 | 23.9 µM (inactive) | > 50 µM (inactive) | > 50 µM (inactive) | > 50 µM (inactive) | > 100 µM (inactive) | > 50 µM (inactive) | 11.4 µM (inactive) | > 50 µM (inactive) | > 50 µM (inactive)
CN(C)Cc1cc(/N=N/c2ccccc2)ccc1O | 92.9 µM (inactive) | 44 µM (inactive) | 30.8 µM (inactive) | 29.6 µM (inactive) | 38.8 µM (inactive) | 32.4 µM (inactive) | 47.3 µM (inactive) | 44.1 µM (inactive) | 39.7 µM (inactive) | 42.7 µM (inactive) | 43.1 | 26.7 µM (inactive) | 34.1 µM (inactive) | 51.4 µM (inactive) | 62.4 µM (inactive) | 34.6 µM (inactive) | 89.1 µM (inactive) | 75.7 µM (inactive) | 42.3 µM (inactive) | 65.5 µM (inactive)
Cc1ccc(S(=O)(=O)N2CCN(S(=O)(=O)c3ccc(C)cc3)CCN(S(=O)(=O)c3ccc(C)cc3)Cc3cc(C#N)c(C#N)cc3CN(S(=O)(=O)c3ccc(C)cc3)CC2)cc1 | > 100 µM (inactive) | 95.7 µM (inactive) | > 100 µM (inactive) | > 100 µM (inactive) | > 100 µM (inactive) | > 100 µM (inactive) | 52.4 µM (inactive) | > 100 µM (inactive) | > 100 µM (inactive) | > 100 µM (inactive) | > 100 | > 100 µM (inactive) | > 100 µM (inactive) | > 100 µM (inactive) | > 100 µM (inactive) | > 100 µM (inactive) | > 100 µM (inactive) | 39.4 µM (inactive) | > 100 µM (inactive) | > 100 µM (inactive)
